Calls of active or inactive are those of the source. The rule behind the calls is not given here.
Assays:
Escherichia coli [1] = test: Antibacterial activity against Escherichia coli ATCC 8793 at 70 ug/ml after 24 hr by paper disk diffusion method; assay type: functional; details: ATCC 8793, 24 h, read-out: DIZ
Fusarium oxysporum [2] = test: Fungicidal activity against Fusarium oxysporum MTCC 2087; assay type: functional, organism-based
Aspergillus niger [3] = test: Fungicidal activity against Aspergillus niger MTCC 3323; assay type: functional, organism-based
Candida albicans [4] = test: Fungicidal activity against Candida albicans MTCC 227; assay type: functional, organism-based
Bacillus subtilis [5] = test: Bactericidal against Bacillus subtilis ATCC 6633; assay type: functional, organism-based
Staphylococcus aureus [6] = test: Antibacterial activity against Staphylococcus aureus ATCC 25923 at 50 ug/ml after 24 hr by paper disk diffusion method; assay type: functional; details: ATCC 25923, 24 h, read-out: DIZ
Staphylococcus aureus [7] = test: Antibacterial activity against Staphylococcus aureus ATCC 25923 at 70 ug/ml after 24 hr by paper disk diffusion method; assay type: functional; details: ATCC 25923, 24 h, read-out: DIZ
Pseudomonas aeruginosa [8] = test: Antibacterial activity against Pseudomonas aeruginosa ATCC 27853 at 30 ug/ml after 24 hr by paper disk diffusion method; assay type: functional; details: ATCC 27853, 24 h, read-out: DIZ
Pseudomonas aeruginosa [9] = test: Antibacterial activity against Pseudomonas aeruginosa ATCC 27853 at 50 ug/ml after 24 hr by paper disk diffusion method; assay type: functional; details: ATCC 27853, 24 h, read-out: DIZ
Pseudomonas aeruginosa [10] = test: Antibacterial activity against Pseudomonas aeruginosa ATCC 27853 at 70 ug/ml after 24 hr by paper disk diffusion method; assay type: functional; details: ATCC 27853, 24 h, read-out: DIZ
Escherichia coli [11] = test: Antibacterial activity against Escherichia coli ATCC 8793 at 30 ug/ml after 24 hr by paper disk diffusion method; assay type: functional; details: ATCC 8793, 24 h, read-out: DIZ
Escherichia coli [12] = test: Antibacterial activity against Escherichia coli ATCC 8793 at 50 ug/ml after 24 hr by paper disk diffusion method; assay type: functional; details: ATCC 8793, 24 h, read-out: DIZ
Staphylococcus aureus [13] = test: Bactericidal activity against Staphylococcus aureus ATCC 25923; assay type: functional, organism-based
Pseudomonas aeruginosa [14] = test: Bactericidal activity against Pseudomonas aeruginosa ATCC 27853; assay type: functional, organism-based
Escherichia coli [15] = test: Bactericidal activity against Escherichia coli ATCC 8793; assay type: functional, organism-based
Fusarium oxysporum [16] = test: Antifungal activity against Fusarium oxysporum MTCC 2087 at 30 ug/ml by paper disk diffusion method; assay type: functional; details: read-out: DIZ
Fusarium oxysporum [17] = test: Antifungal activity against Fusarium oxysporum MTCC 2087 at 50 ug/ml by paper disk diffusion method; assay type: functional; details: read-out: DIZ
Fusarium oxysporum [18] = test: Antifungal activity against Fusarium oxysporum MTCC 2087 at 70 ug/ml by paper disk diffusion method; assay type: functional; details: read-out: DIZ
Aspergillus niger [19] = test: Antifungal activity against Aspergillus niger MTCC 3323 at 30 ug/ml by paper disk diffusion method; assay type: functional; details: read-out: DIZ
Aspergillus niger [20] = test: Antifungal activity against Aspergillus niger MTCC 3323 at 50 ug/ml by paper disk diffusion method; assay type: functional; details: read-out: DIZ
Aspergillus niger [21] = test: Antifungal activity against Aspergillus niger MTCC 3323 at 70 ug/ml by paper disk diffusion method; assay type: functional; details: read-out: DIZ
Candida albicans [22] = test: Antifungal activity against Candida albicans MTCC 227 at 30 ug/ml by paper disk diffusion method; assay type: functional; details: read-out: DIZ
Candida albicans [23] = test: Antifungal activity against Candida albicans MTCC 227 at 50 ug/ml by paper disk diffusion method; assay type: functional; details: read-out: DIZ
Candida albicans [24] = test: Antifungal activity against Candida albicans MTCC 227 at 70 ug/ml by paper disk diffusion method; assay type: functional; details: read-out: DIZ
Bacillus subtilis [25] = test: Antibacterial activity against Bacillus subtilis ATCC 6633 at 30 ug/ml after 24 hr by paper disk diffusion method; assay type: functional; details: ATCC 6633, 24 h, read-out: DIZ
Bacillus subtilis [26] = test: Antibacterial activity against Bacillus subtilis ATCC 6633 at 50 ug/ml after 24 hr by paper disk diffusion method; assay type: functional; details: ATCC 6633, 24 h, read-out: DIZ
Bacillus subtilis [27] = test: Antibacterial activity against Bacillus subtilis ATCC 6633 at 70 ug/ml after 24 hr by paper disk diffusion method; assay type: functional; details: ATCC 6633, 24 h, read-out: DIZ
Staphylococcus aureus [28] = test: Antibacterial activity against Staphylococcus aureus ATCC 25923 at 30 ug/ml after 24 hr by paper disk diffusion method; assay type: functional; details: ATCC 25923, 24 h, read-out: DIZ

Row | SMILES | zone of inhibition at 70 µg/mL (Escherichia coli [1]) [mm] | Activity (Fusarium oxysporum [2]) | Activity (Aspergillus niger [3]) | Activity (Candida albicans [4]) | Activity (Bacillus subtilis [5]) | zone of inhibition at 50 µg/mL (Staphylococcus aureus [6]) [mm] | zone of inhibition at 70 µg/mL (Staphylococcus aureus [7]) [mm] | zone of inhibition at 30 µg/mL (Pseudomonas aeruginosa [8]) [mm] | zone of inhibition at 50 µg/mL (Pseudomonas aeruginosa [9]) [mm] | zone of inhibition at 70 µg/mL (Pseudomonas aeruginosa [10]) [mm] | zone of inhibition at 30 µg/mL (Escherichia coli [11]) [mm] | zone of inhibition at 50 µg/mL (Escherichia coli [12]) [mm] | Activity (Staphylococcus aureus [13]) | Activity (Pseudomonas aeruginosa [14]) | Activity (Escherichia coli [15]) | zone of inhibition at 30 µg/mL (Fusarium oxysporum [16]) [mm] | zone of inhibition at 50 µg/mL (Fusarium oxysporum [17]) [mm] | zone of inhibition at 70 µg/mL (Fusarium oxysporum [18]) [mm] | zone of inhibition at 30 µg/mL (Aspergillus niger [19]) [mm] | zone of inhibition at 50 µg/mL (Aspergillus niger [20]) [mm] | other results
1 | CCCCCN(CCCCC)CC(=O)Nn1c(S)nnc1-c1ccc(C)cc1 | 8.13 | inactive | inactive | inactive | Active | 7.1 | 8.16 | 7.13 | 8.13 | 9.17 | 6.26 | 7.16 | Active | Active | Active | 7.07 | 8.23 | 9.13 | 9.06 | 11.3 | zone of inhibition at 70 µg/mL (Aspergillus niger [21]): 12.1 mm; zone of inhibition at 30 µg/mL (Candida albicans [22]): 7.26 mm; zone of inhibition at 50 µg/mL (Candida albicans [23]): 8.1 mm; zone of inhibition at 70 µg/mL (Candida albicans [24]): 9.23 mm; zone of inhibition at 30 µg/mL (Bacillus subtilis [25]): 6.46 mm; zone of inhibition at 50 µg/mL (Bacillus subtilis [26]): 7.2 mm; zone of inhibition at 70 µg/mL (Bacillus subtilis [27]): 8.23 mm; zone of inhibition at 30 µg/mL (Staphylococcus aureus [28]): 6.03 mm
2 | Cc1ccc(-c2nnc(S)n2NC(=O)CN(C(C)C)C(C)C)cc1 | 10.5 | inactive | inactive | inactive | Active | 8.2 | 9.1 | 8.3 | 9.26 | 10.1 | 8.2 | 9.2 | Active | Active | Active | 6.06 | 7.17 | 8.33 | 10.1 | 11 | zone of inhibition at 70 µg/mL (Aspergillus niger [21]): 12.2 mm; zone of inhibition at 30 µg/mL (Candida albicans [22]): 8.03 mm; zone of inhibition at 50 µg/mL (Candida albicans [23]): 9.16 mm; zone of inhibition at 70 µg/mL (Candida albicans [24]): 10.1 mm; zone of inhibition at 30 µg/mL (Bacillus subtilis [25]): 7.2 mm; zone of inhibition at 50 µg/mL (Bacillus subtilis [26]): 8.23 mm; zone of inhibition at 70 µg/mL (Bacillus subtilis [27]): 9.23 mm; zone of inhibition at 30 µg/mL (Staphylococcus aureus [28]): 7.3 mm
3 | CCCCN(CCCC)CC(=O)Nn1c(S)nnc1-c1ccc(OC)cc1 | 17.3 | Active | Active | Active | Active | 15.2 | 17.2 | 15.1 | 16.2 | 18.2 | 13 | 15.1 | Active | Active | Active | 13.1 | 14.3 | 16.2 | 18.1 | 20.1 | zone of inhibition at 70 µg/mL (Aspergillus niger [21]): 22.4 mm; zone of inhibition at 30 µg/mL (Candida albicans [22]): 16.1 mm; zone of inhibition at 50 µg/mL (Candida albicans [23]): 18.3 mm; zone of inhibition at 70 µg/mL (Candida albicans [24]): 20.4 mm; zone of inhibition at 30 µg/mL (Bacillus subtilis [25]): 11.2 mm; zone of inhibition at 50 µg/mL (Bacillus subtilis [26]): 13 mm; zone of inhibition at 70 µg/mL (Bacillus subtilis [27]): 15.2 mm; zone of inhibition at 30 µg/mL (Staphylococcus aureus [28]): 13.1 mm
4 | CCCCN(CCCC)CC(=O)Nn1c(S)nnc1-c1ccc(C)cc1 | 13.2 | Active | Active | Active | Active | 12.1 | 14 | 12.3 | 13.6 | 14.1 | 11.2 | 12.1 | Active | Active | Active | 8.17 | 9.2 | 11.4 | 15.1 | 16.2 | zone of inhibition at 70 µg/mL (Aspergillus niger [21]): 18 mm; zone of inhibition at 30 µg/mL (Candida albicans [22]): 11.1 mm; zone of inhibition at 50 µg/mL (Candida albicans [23]): 12.2 mm; zone of inhibition at 70 µg/mL (Candida albicans [24]): 13.2 mm; zone of inhibition at 30 µg/mL (Bacillus subtilis [25]): 10.3 mm; zone of inhibition at 50 µg/mL (Bacillus subtilis [26]): 11.2 mm; zone of inhibition at 70 µg/mL (Bacillus subtilis [27]): 12.2 mm; zone of inhibition at 30 µg/mL (Staphylococcus aureus [28]): 11.1 mm
